Where two headings read alike, the source gives them in different places.
Tests used:
S. aureus TopoIV enzyme = S. aureus TopoIV enzyme (Staphylococcus aureus, UniProt P0C1S7); assay: DNA Topo IV ATPase Assay; type: biochemical
Procedure: The conversion of ATP to ADP by S. aureus TopoIV enzyme was coupled to the conversion of NADH to NAD+, and the progress of the reaction was measured by the change in absorbance at 340 nm. TopoIV (64 nM) was incubated with the selected compound (3% DMSO final) in buffer for 10 minutes at 30° C. The buffer consisted of 100 mM Tris 7.5, 1.5 mM MgCl2, 200 mM K·Glutamate, 2.5 mM phosphoenol pyruvate, 0.2 mM NADH, 1 mM DTT, 5 μg/mL linearized DNA, 50 μg/mL BSA, 30 μg/mL pyruvate kinase, and 10 μg/mL lactate dehyrodgenase (LDH). The reaction was initiated with ATP, and rates were monitored continuously for 20 minutes at 30° C. on a Molecular Devices SpectraMAX plate reader. The inhibition constant, Ki, was determined from plots of rate vs. concentration of selected compound fit to the Morrison Equation for tight binding inhibitors.

Aqueous Solubility Study = type: physicochemical; conditions: aqueous buffer, thermodynamic from solid; water, pH adjusted with 1.0N HCl, stirred 96 hours at room temperature, filtered, HPLC; filtrate pH per compound (23: >3.0; X: 4.41; Y: 3.01; Z: 4.35)
Procedure: The aqueous solubilities of compounds 23, X, Y, and Z were determined according to the following procedure.
Aqueous samples of each compound were prepared as follows. Compounds were weighed (20-30 mg compound) in 4 ml clear vials prior to adding water (0.5 mL) and stirring by magnetic stirrer. 1.0N HCl was added to the suspension to adjust the pH to the desired range. After stirring for 96 hours at room temperature, the suspension was filtered through a 0.22 micron filter (Millipore, Ultrafree centrifugal filters, Durapore PVDF 0.22 μm, Cat# UFC30GVNB). The filtrate was collected and the pH measured with a pH meter. The filtrates containing compounds X and Z were diluted 100-fold and 400-fold, respectively, to provide an appropriate concentration for HPLC analysis.
Standard solutions of each compound were prepared according to the following procedure. 1 to 2 mg of each compound was accurately weighed into a 10 mL volumetric flask and either water (for compounds X and Z), methanol (for compound Y), or 1:1 methanol:0.1N HCl (for compound 23) was added to completely dissolve the compounds. Sonication was performed for compound 23 to assist with the dissolution in 1:1 methanol:0.1N HCl. When all solids dissolved, additional solvent was added to adjust the volume of each solution to 10 ml. The resulting solutions were thoroughly mixed to give the standard solutions of each compound. Each standard solution was then diluted with solvent by 2-fold, 10-fold, and 100-fold.
Aliquots of each sample and each standard solution were analyzed by HPLC analysis (Agilent 1100, injection volume 10 μL, wavelength 271 nm, column XTerra® Phenyl 5 μm, 4.6×50 mm, Part No. 186001144, mobile phase: A: 0.1% TFA in water 0.1% TFA in AcN). Each standard solution was injected three times, and each of the samples was injected twice. Standard curves were obtained by plotting the average of the peak area from the HPLC versus the concentrations of the standard solutions (with appropriate corrections of the weights of the standards based on total water content of the solid as determined by elemental analysis). The concentration of each sample was calculated from the peak area of the aqueous sample from the HPLC results and the slope and intercept of the standard curves. The solubility values listed in Table 3 below were derived from the product of the concentration of the sample and the dilution factor of the sample.

S. aureus DNA gyrase = S. aureus DNA gyrase (Staphylococcus aureus, UniProt P0A0K8); assay: DNA Gyrase ATPase Assay; type: biochemical; conditions: coupled ATPase assay, 30° C., 90 nM enzyme, 0.9 mM ATP; read-out: Ki, Inhibition of S. aureus DNA Gyrase
S. aureus DNA gyrase, sequence (P0A0K8 whole entry): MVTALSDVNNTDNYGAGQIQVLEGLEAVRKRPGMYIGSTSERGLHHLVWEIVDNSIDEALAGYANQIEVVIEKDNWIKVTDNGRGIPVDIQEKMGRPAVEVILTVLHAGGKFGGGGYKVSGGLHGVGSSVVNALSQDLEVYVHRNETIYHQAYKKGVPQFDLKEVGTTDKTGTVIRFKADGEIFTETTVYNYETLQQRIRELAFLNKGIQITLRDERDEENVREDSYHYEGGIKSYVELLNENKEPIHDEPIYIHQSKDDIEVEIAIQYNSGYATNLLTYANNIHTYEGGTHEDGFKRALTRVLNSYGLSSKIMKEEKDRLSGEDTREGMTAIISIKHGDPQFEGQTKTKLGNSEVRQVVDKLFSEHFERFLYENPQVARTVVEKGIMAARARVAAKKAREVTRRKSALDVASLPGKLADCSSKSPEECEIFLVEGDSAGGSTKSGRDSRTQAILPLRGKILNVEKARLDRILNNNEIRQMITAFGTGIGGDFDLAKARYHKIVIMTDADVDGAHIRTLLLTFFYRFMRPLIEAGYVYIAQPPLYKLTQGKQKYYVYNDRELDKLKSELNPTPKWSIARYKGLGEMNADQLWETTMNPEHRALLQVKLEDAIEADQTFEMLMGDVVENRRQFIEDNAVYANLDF
S. aureus DNA gyrase, sequence (P20831 whole entry partner): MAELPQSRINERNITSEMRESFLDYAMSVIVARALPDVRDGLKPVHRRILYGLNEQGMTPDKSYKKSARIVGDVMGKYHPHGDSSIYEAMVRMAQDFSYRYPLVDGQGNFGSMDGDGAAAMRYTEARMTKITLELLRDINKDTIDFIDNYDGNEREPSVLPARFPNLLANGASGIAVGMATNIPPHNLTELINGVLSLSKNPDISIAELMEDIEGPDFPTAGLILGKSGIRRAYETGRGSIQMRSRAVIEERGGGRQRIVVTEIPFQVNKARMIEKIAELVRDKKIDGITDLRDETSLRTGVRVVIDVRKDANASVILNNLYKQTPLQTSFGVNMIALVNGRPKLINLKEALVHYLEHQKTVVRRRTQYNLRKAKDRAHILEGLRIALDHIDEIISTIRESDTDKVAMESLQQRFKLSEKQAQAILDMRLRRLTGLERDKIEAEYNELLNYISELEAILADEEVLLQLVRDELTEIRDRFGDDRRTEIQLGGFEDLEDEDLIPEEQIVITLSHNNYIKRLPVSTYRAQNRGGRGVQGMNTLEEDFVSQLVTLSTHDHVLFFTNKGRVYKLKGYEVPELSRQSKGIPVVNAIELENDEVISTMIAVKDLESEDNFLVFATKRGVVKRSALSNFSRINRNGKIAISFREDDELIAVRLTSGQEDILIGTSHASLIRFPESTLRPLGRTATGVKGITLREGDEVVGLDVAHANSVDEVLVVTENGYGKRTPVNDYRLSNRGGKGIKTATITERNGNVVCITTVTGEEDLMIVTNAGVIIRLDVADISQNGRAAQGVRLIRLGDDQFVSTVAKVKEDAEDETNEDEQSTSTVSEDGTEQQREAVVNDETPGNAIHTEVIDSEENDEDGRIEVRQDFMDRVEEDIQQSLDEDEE
Procedure: The ATP hydrolysis activity of S. aureus DNA gyrase was measured by coupling the production of ADP through pyruvate kinase/lactate dehydrogenase to the oxidation of NADH. This method has been described previously (Tamura and Gellert, 1990, J. Biol. Chem., 265, 21342).
ATPase assays were carried out at 30° C. in buffered solutions containing 100 mM TRIS pH 7.6, 1.5 mM MgCl2, 150 mM KCl. The coupling system contains final concentrations of 2.5 mM phosphoenol pyruvate, 200 μM nicotinamide adenine dinucleotide (NADH), 1 mM DTT, 30 ug/ml pyruvate kinase, and 10 ug/ml lactate dehydrogenase. The enzyme (90 nM final concentration) and a DMSO solution (3% final concentration) of the selected compound were added. The reaction mixture was allowed to incubate for 10 minutes at 30° C. The reaction was initiated by the addition of ATP to a final concentration of 0.9 mM, and the rate of NADH disappearance was monitored at 340 nanometers over the course of 10 minutes. The Ki values were determined from rate versus concentration profiles.

[1] = coupled ATPase assay, 30° C., 64 nM TopoIV, Morrison Equation fit, read-out: Ki, Inhibition of S. aureus DNA Topo IV

S. aureus TopoIV enzyme, sequence (P0C1S7 whole entry): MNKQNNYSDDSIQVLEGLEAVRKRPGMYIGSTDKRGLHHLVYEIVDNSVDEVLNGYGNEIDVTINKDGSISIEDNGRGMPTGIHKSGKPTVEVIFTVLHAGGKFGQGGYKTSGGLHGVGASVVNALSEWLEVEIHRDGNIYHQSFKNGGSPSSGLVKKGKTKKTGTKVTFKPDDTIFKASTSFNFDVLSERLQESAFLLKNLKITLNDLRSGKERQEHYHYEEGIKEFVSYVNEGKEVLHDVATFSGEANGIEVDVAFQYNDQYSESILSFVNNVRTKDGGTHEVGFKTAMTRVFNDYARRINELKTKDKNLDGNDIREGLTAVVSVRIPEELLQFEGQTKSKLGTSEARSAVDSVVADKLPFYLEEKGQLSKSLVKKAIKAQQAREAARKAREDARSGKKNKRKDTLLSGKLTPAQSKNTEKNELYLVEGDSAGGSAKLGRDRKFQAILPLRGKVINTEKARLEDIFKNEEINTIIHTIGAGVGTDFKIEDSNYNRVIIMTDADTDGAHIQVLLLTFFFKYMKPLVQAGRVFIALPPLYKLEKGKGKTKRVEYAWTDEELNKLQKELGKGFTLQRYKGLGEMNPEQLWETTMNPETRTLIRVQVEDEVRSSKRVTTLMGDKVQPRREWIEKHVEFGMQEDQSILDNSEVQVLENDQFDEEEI
S. aureus TopoIV enzyme, sequence (P0C1U9 whole entry partner): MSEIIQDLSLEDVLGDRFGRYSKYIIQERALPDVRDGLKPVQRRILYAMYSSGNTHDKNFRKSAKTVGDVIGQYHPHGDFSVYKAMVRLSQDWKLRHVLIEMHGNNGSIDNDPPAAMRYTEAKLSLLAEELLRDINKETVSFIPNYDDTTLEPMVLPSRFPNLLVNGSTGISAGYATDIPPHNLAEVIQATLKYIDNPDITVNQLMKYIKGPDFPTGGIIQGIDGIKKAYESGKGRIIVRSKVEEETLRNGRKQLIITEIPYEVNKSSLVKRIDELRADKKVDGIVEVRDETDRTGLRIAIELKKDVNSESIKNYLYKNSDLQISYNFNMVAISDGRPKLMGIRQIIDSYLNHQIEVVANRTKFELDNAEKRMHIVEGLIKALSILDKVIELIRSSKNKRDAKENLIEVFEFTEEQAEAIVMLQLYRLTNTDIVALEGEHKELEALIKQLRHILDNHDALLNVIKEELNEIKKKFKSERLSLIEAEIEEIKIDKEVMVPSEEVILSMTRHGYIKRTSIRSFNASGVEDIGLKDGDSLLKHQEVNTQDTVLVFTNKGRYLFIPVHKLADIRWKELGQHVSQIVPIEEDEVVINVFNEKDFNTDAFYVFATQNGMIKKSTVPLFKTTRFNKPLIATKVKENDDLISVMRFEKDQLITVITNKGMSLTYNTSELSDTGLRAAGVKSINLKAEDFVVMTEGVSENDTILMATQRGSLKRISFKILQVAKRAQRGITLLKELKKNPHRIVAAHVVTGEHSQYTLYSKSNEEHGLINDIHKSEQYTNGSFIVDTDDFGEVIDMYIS

Structure (SMILES)	Ki (S. aureus TopoIV enzyme)	solubility at 96 h (Aqueous Solubility Study)	Ki (S. aureus TopoIV enzyme; [1])	Ki (S. aureus DNA gyrase)
CCNC(=O)Nc1nc2cc(-c3cnc(C(C)(C)O)nc3)c(F)c([C@H]3CCCO3)c2[nH]1 [Compound 23, (R)-1-ethyl-3-(6-fluoro-5-(2-(2-hydroxypropan-2-yl)pyrimidin-5-yl)-7-(tetrahydrofuran-2-yl)-1H-benzo[d]imidazol-2-yl)urea]	9 nM	< 0.001 mg/mL		
CCNC(=O)Nc1nc2cc(-c3cnc(C(C)(C)OP(=O)(O)OCCOCCOC)nc3)c(F)c([C@H]3CCCO3)c2[nH]1 [Compound X, ammonium (R)-2-(5-(2-(3-ethylureido)-6-fluoro-7-(tetrahydrofuran-2-yl)-1H-benzo[d]imidazol-5-yl)pyrimidin-2-yl)propan-2-yl 2-(2-methoxyethoxy)ethyl phosphate]		12.7 mg/mL	45 nM	< 9 nM
CCCCCCCCCCCCCCCCOP(=O)(O)OC(C)(C)c1ncc(-c2cc3nc(NC(=O)NCC)[nH]c3c([C@H]3CCCO3)c2F)cn1 [Compound Y, ammonium (R)-2-(5-(2-(3-ethylureido)-6-fluoro-7-(tetrahydrofuran-2-yl)-1H-benzo[d]imidazol-5-yl)pyrimidin-2-yl)propan-2-yl hexadecyl phosphate]		< 0.001 mg/mL	24 nM	13 nM
CCNC(=O)Nc1nc2cc(-c3cnc(C(C)(C)OP(=O)(O)OCCN4CCOCC4)nc3)c(F)c([C@H]3CCCO3)c2[nH]1 [Compound Z, 2-(5-(2-(3-ethylureido)-6-fluoro-7-((R)-tetrahydrofuran-2-yl)-1H-benzo[d]imidazol-5-yl)pyrimidin-2-yl)propan-2-yl 2-morpholinoethyl hydrogen phosphate]		> 41 mg/mL	80 nM	< 9 nM

Source: patent publication US9125922B2, “Phosphate esters of gyrase and topoisomerase inhibitors” (priority 2011, dated 2015)
